Results from patent publication US6916789B2, “Peyer's patch and/or M-cell targeting ligands” (Merrion Research I Limited, priority 2001, dated 2005).
Where no end group is shown, it is not given here. [ ]: non-standard residue; d: D form.

Key:
[1] = system: intestinal tissue of different species namely dog, mouse, pig, and rat; assay: Peptide binding to intestinal tissue of different species; conditions: biotin-tagged peptides
Procedure: (§1) Peptide sequences (SEQ ID NOs:3, 7, 8, 9 and 14) were synthesized with biotin tags at the amino terminal for all peptides and additionally at the carboxyl terminal for SEQ ID NOs:8 and 14. Binding of these peptides to intestinal tissue of different species namely dog, mouse, pig, and rat was performed. […] (See FIGS. 14A-14H). Binding of peptides (SEQ ID NOs:8 and 14) to rat tissue from different organs, namely liver, lung, mesenteric lymph nodes, spleen and kidney, was performed. […] (See FIGS. 15A-15E).

[2] = system: rat intestinal tissue homogenates; assay: Synthetic peptide ELISA-based binding to rat intestinal tissue homogenates; conditions: biotin-tagged peptides; Example 5
Procedure: The rat tissue homogenates were prepared by harvesting rat GI and Peyer's patch and storing them on ice until needed, or 1-2 hours. The tissue was then put into homogenization buffer (250 mM Sucrose, 12 mM Tris, 16 mM EDTA) with protease inhibitor cocktail. A hand-held homogenizer was used to break up the tissue for 3-4 minutes. The contents of the homogenizer were then transferred to microfuge tubes and spun at 1500 rpm for 1 minute. The supernatant was taken off and measured for protein content using the Bio-Rad Assay. Specificity studies were then run to allow differentiation between Peyer's patch specific and non-specific binding properties. The 55 high-binding clones were assayed for binding to rat small intestinal homogenates (i.e., homogenate membrane fractions) with and without Peyer's Patch tissue (i.e., tissue homogenate membrane fractions) present. (See FIGS. 6 and 7). The negative control was M13 mp18 with no peptide insert.
(§2) Peptide sequences (SEQ ID NOs: 3, 4, 5, 7, 8, 9, 10, 11, 14, 15, 16, 17, 19, 20, 26, 28, 29, 30) were synthesized with biotin tags at the amino terminal for all peptides and additionally at the carboxyl terminal for SEQ ID NOs:8 and 14. Binding of these peptides to Caco-2 homogenates and/or to rat intestinal tissue homogenates was tested in an ELISA-based assay with streptavidin-peroxidase detection. […] (See FIGS. 13A-13N).

[3] = system: Caco-2 homogenates; assay: Synthetic peptide ELISA-based binding to Caco-2 homogenates (streptavidin-peroxidase detection); parameters: species or system human; conditions: for peptide binding: biotin-tagged peptides, Example 5; for binder category / binding to epithelium: ELISA, intestinal epithelial tissue, FIGS. 17A-17B Caco-2 homogenates; for Binding Assay results (Caco-2), category / Binding Assay results (Caco-2), Kd: Tables 9 and 10
Procedure: In order to prepare the Caco-2 cell membrane and cytosolic fractions, confluent Caco-2 cell monolayers (grown in 75 cm^2 flasks for up to 1 week at 37° C. and 5% CO2) were washed twice in Dulbecco's PBS (DPBS). The cell monolayers were then treated with 10 mM EDTA-DPBS for 5-10 minutes at 37° C. and the cells were harvested by centrifugation at 1000 rpm for 5 minutes. The cells were then washed 3×in DPBS. The cell pellet was resuspended in 3 volumes of ice-cold HED buffer (20 mM HEPES (pH 7.67), 1 mM EGTA, 0,5 mM dithiothreitol, 1 mM phenylmethylsuphonyl fluoride (PMSF)) and the cells were allowed to swell for 5 minutes on ice. The cells were then homogenized for 30 seconds. The cell homogenates were then centrifuged in hard walled tubes at 40,000 rpm for 45 minutes at 4° C. (ultracentrifuge Ti90 rotor). The supernatant was removed and the pellet resuspended in HEDG buffer (20 mM HEPES (pH 7.67), 1 mM EGTA, 0.5 mM dithiothreithol, 100 mM NaCl, 10% glycerol, 1 mM PMSF). Three volumes of buffer were then added and the pellet was resuspended and centrifuged again at 1000 rpm for 2 minutes. The supernatant was removed and stored on ice. The procedure was repeated adding the second supernatant to the first and then the procedure was repeated 2-3 more times. The protein concentration was determined using the Bio-Rad protein assay. All fractions were stored at −80° C.
as §2

[4] = system: Caco-2 homogenates; assay: Peptide coated particles ELISA-based binding to Caco-2 homogenates; parameters: species or system human; conditions: for binding of peptide coated particles: peptide adsorbed to streptavidin particles (0.289 μm)
Procedure: Several phage-derived peptides (SEQ ID NOs: 25, 31, 32, 33, and 40) were adsorbed to streptavidin particles (0.289 μm). Peptide coated particles were tested in an ELISA-based assay for binding to Caco-2 homogenates. […] In addition, when one double-mutant peptide ligand (SEQ ID NO:33), is adsorbed to polystyrene particles binding that is approximately 60% of that of the parent peptide is observed (See FIGS. 19A-19B).

[5] = system: human Peyer's patch tissue sections; assay: Biotinylated peptide binding to human Peyer's patch tissue sections (streptavidin-HRP/DAB staining); conditions: biotinylated peptide at 50 μg/ml; for binding to human Peyer's patch: 1 hour
Procedure: Three synthetic peptides (SEQ ID NO:8, 25 and 14) derived from isolated clones were biotinylated and tested for binding to human Peyer's patch tissue sections. In addition, a known negative binding peptide was included as a negative control. Paraffin sections of human Peyer's patch were deparaffinized and […]. The sections were rinsed in PBS. The antigenic determinants on the tissue were unmasked by microwaving in 2.1 g/L acetic acid for 5 minutes and allowed to cool at room temperature for 20 minutes while covered in plastic wrap. After 20 minutes, the sections were washed in PBS and then blocked in endogenous peroxidase in 1% hydrogen peroxide in methanol for 10 minutes. The rinse was repeated and the sections were blocked with 2% BSA in PBS for 20 minutes at room temperature. The sections were incubated with peptide at 50 μg/ml in […] in PBS for 1 hour at room temperature. Control tissue was treated with BSA alone. The sections were rinsed with 0.05% Tween in PBS. Streptavidin-HRP at 1/500 in 2% BSA was added for 30-60 minutes at room temperature. Again, the sections were rinsed with PBS/Tween. DAB substrate was added for up to 5 minutes, and the reaction was stopped by immersing the slides in water. The sections were counterstained using Haematoxlin for 50 seconds and then rinsed in water. The slides were differentiated in 1% acid alcohol for 5-10 seconds and then rinsed in water. The slides were mounted using aqueous mounting medium and a cover slip.

[6] = system: intestinal epithelial tissue; assay: Cysteine binding studies: co-incubation with free L-cysteine; conditions: L-cysteine 100 mM to 0.003 mM; peptide 6.25-25 μg/ml
Procedure: FIG. 16A is a graph of the binding of SEQ ID NO:8 at a concentration of 25 μg/ml to intestinal epithelial tissue in the presence of varying concentrations of free L-cysteine as a function of absorbance at 650 nm.
Peptide SEQ ID NO:8, at a concentration of 6.25 μg/ml, 12.5 μg/ml and 25 μg/ml, was co-incubated with L-cysteine over the concentration range of 100 mM to 0.003 mM. Peptide SEQ ID NO:25, at a concentration of 6.25 μg/ml was co-incubated with L-cysteine over the concentration range of 100 mM to 0.003 mM.

[7] = system: rat tissue from different organs, namely liver, lung, mesenteric lymph nodes, spleen and kidney; assay: Peptide binding to rat tissue from different organs
Procedure: as §1

[8] = system: M-cells; assay: Peptide coated fluorescent polystyrene particles in mouse intestinal loops, confocal microscopy; assay type: in vivo; conditions: fluorescent polystyrene particles (0.289 μm), 30 minutes incubation in loops
Procedure: Biotinylated SEQ ID NO:40 was adsorbed to the surface of fluorescent polystyrene particles (0.289 μm) using routine methodologies at room temperature. Mouse intestinal loops containing one or more polystyrene suspensions (typically 300 μl containing 5.0×10^10 particles per ml) were incubated for 30 minutes. The Peyer's patches were excised, fixed in methanol and the M cells were counter-stained with UEA1-rhodamine for subsequent analysis by confocal microscopy. Stained tissues were examined on a BioRad MRC 600 confocal laser-scanning microscope.

binder category / binding to epithelium [3]	Binding Assay results (Caco-2), Kd [3]	Substance	Binding Assay results (Caco-2), category [3]	further results
binding to the epithelium is abrogated	–	LETTAASLAYPS (polypeptide ligand) [SEQ ID NO:33]	No binding	binding relative to that of the parent peptide ([4]; peptide adsorbed to polystyrene particles): approximately 60%; binding of peptide coated particles [4]: Binding was retained
binding is still retained	(Kd˜9 μg/ml)	LETTAASLCYPS [SEQ ID NO:31]	Medium binder	binding of peptide coated particles [4]: Binding was retained
binding is still retained	(Kd˜8 μg/ml)	LETTCASLAYPS [SEQ ID NO:32]	Medium binder	binding of peptide coated particles [4]: Binding was retained
binding to the epithelium is abrogated	–	VPPHPMTYSAQY (polypeptide ligand) [SEQ ID NO:38]	No binding	–
–	(Kd˜30.53 μg/ml)	lettcaslcyps ([dL][dE][dT][dT][dC][dA][dS][dL][dC][dY][dP][dS]; cysteine pairing not given here) [SEQ ID NO:36]	–	–
–	(Kd˜13.91 μg/ml)	spyclsacttel ([dS][dP][dY][dC][dL][dS][dA][dC][dT][dT][dE][dL]; cysteine pairing not given here) [SEQ ID NO:35]	Medium binder	–
retained high binding	(Kd˜10 μg/ml)	vpphpmtyscqy ([dV][dP][dP][dH][dP][dM][dT][dY][dS][dC][dQ][dY]) [SEQ ID NO:37]	–	–
retained high binding	(Kd˜10 μg/ml)	yqcsytmphppv ([dY][dQ][dC][dS][dY][dT][dM][dP][dH][dP][dP][dV]) [SEQ ID NO:40]	–	binding and uptake of peptide coated particles [8]: binding and uptake into M-cells; binding of peptide coated particles [4]: Binding was retained

Second part, the substance before the results:

Substance	binder category / binding to epithelium [3]	Binding Assay results (Caco-2), Kd [3]	Binding Assay results (Caco-2), category [3]	further results
DYDSLSWRSTLH (polypeptide ligand) [SEQ ID NO:3]	–	–	–	differences in binding profiles to tissue of different species [1]: No major differences; peptide binding [2]: High binding; peptide binding [3]: High binding
DYDSLSWRSTLHGGHESSH (polypeptide ligand) [SEQ ID NO:43]	–	–	–	effect of added Zinc-binding motif (HESSH) on binding ([3]; compared with SEQ ID NO:3): Enhanced binding
KPAYTHEYRWLA (polypeptide ligand) [SEQ ID NO:7]	–	–	–	differences in binding profiles to tissue of different species [1]: No major differences
LETTCASLCYPS (polypeptide ligand) [SEQ ID NO:8]	medium binder	–	Medium binder	differences in binding profiles to tissue of different species [1]: No major differences; staining localisation [5]: positive staining on the apical side of human enterocytes; binding to human Peyer's patch [5]: Positive binding; effect of free L-cysteine on peptide binding [6]: prevented binding; peptide binding [2]: High binding; differences in binding profiles to tissues of different organs [7]: No major differences; effect of biotin tag at amino or carboxyl end on binding affinities [3]: No differences; peptide binding [3]: High binding
LETTCASLCYPS [8 biotinylated derivative]	–	(Kd˜8 μg/ml)	Medium binder	–
LETTCASLCYPS [8 dansyl-lysine derivative]	–	(Kd˜1 μg/ml)	High binder	–
LETTSASLSYPS (polypeptide ligand) [SEQ ID NO:34]	–	–	No binding	–
LGTDWHSVSYTL (polypeptide ligand) [SEQ ID NO:9]	–	–	–	differences in binding profiles to tissue of different species [1]: No major differences
NTRIPEPIRFYM (polypeptide ligand) [SEQ ID NO:14]	low to medium binder	–	–	differences in binding profiles to tissue of different species [1]: No major differences; binding to human Peyer's patch [5]: negative for binding; differences in binding profiles to tissues of different organs [7]: No major differences
VCSNMYFSCRLS (polypeptide ligand) [SEQ ID NO:24]	medium binder	–	–	peptide binding [2]: High binding; peptide binding [3]: High binding
VPPHPMTYSCQY (polypeptide ligand) [SEQ ID NO:25]	highest binder	–	–	staining localisation [5]: positive staining on the apical side of human enterocytes; binding to human Peyer's patch [5]: Positive binding; effect of free L-cysteine on peptide binding [6]: prevented binding; peptide binding [2]: High binding; peptide binding [3]: High binding; binding of peptide coated particles [4]: Binding was retained
VPPHPMTYSCQY [25 Dansyl-lysine derivative]	–	(Kd < 1 μg/ml)	–	–
VPPHPMTYSCQY [25 biotinylated derivative]	–	(Kd < 5 μg/ml)	High binder	–
VPPHPMTYSSQY (polypeptide ligand) [SEQ ID NO:39]	–	–	No binding	–
